Where a name gives a salt, the structure may show the parent alone.
Experiments:
[1] = Drug loading into MAG-C cationic liposomes by HPLC; assay type: physicochemical; conditions: 3 mol % drug
Description: The influence of MAG-C on the efficiency of loading chemotherapeutic agents (hydrophilic and lipophilic) in cationic liposomes was evaluated by HPLC. […] The inclusion of PEG in MAG-C cationic liposomes improved incorporation of vinblastine sulfate from […]. We also evaluated the effect of MAG-C on the incorporation efficiency of the hydrophilic drug, dacarbazine at 3 mol %.

[2] = test system: B16-F10 melanoma tumor; conditions: 1.35 mg/kg
[3] = test system: B16-F10 melanoma metastasis; experiment: Tumor metastases (melanin pigmentation, pleural cavity)
[4] = cationic liposomes without MAG-C

SMILES | incorporation (loading) efficiency ([1]; MAG-C cationic liposomes with PEG included) [%] | incorporation (loading) efficiency ([1]; cationic liposomes with 0.5 mg/ml MAG-C (SPION)) | incorporation (loading) efficiency [1, 4] [%] | tumor volumes compared to the untreated control group [2] | incorporation (loading) efficiency ([1]; cationic liposomes with 2.5 mg/ml MAG-C (SPION)) | number of tumor nodules in the livers ([3]; compared to the saline control) | mice with evidence of metastasis within the pleural cavity ([3]; free drug)
COc1cc([C@@H]2c3cc4c(cc3[C@@H](O[C@@H]3O[C@@H]5CO[C@@H](C)O[C@H]5[C@H](O)[C@H]3O)[C@H]3COC(=O)[C@H]23)OCO4)cc(OC)c1O [etoposide] | 7873.73 | did not alter the incorporation efficiency | 7876.03 | – | – | – | –
CC[C@]1(O)C[C@@H]2CN(CCc3c([nH]c4ccccc34)[C@@](C(=O)OC)(c3cc4c(cc3OC)N(C)[C@H]3[C@@](O)(C(=O)OC)[C@H](OC(C)=O)[C@]5(CC)C=CCN6CC[C@]43[C@@H]65)C2)C1 [vinblastine sulfate] | – | – | 3273.6 | no significant difference in the tumor volumes | no further decrease was observed | less | 5/5

— US20130323165A1, “Magnetic Nanoplatforms for Theranostic and Multi-Modal Imaging Applications” (NORTHEASTERN UNIVERSITY, priority 2010, published 2013)
